The text below walks through data of ChEMBL document CHEMBL3525899, “Identification of the cytochrome P450 and other enzymes involved in the in vitro oxidative metabolism of a novel antidepressant, Lu AA21004” (Drug Metab Dispos, 2012).

Data set [1] relates to Liver microsome. Briefly: Drug metabolism in phenotyped human liver microsomes assessed as formation of 3-methyl-4-(2-(piperazin-1-yl)phenylthio)benzoic acid at 8 to 50 uM after 60 mins by HPLC/MS-MS analysis in presence of NADPH regenerating system with NADP+. The data set is classed as ADME. The following applies: 1 h. In general terms: Microsomes from liver hold many membrane-bound enzymes, among them those of drug oxidation.

The test system of data set [2] is Liver microsome. Put plainly: Drug metabolism in phenotyped human liver microsomes assessed as formation of 4-(2-(2,4-dimethylphenylthio)phenyl)piperazin-1-ol at 8 to 50 uM after 60 mins by HPLC/MS-MS analysis in presence of NADPH regenerating system with NADP+. The data set is classed as ADME. The following applies: 1 h.
Data set [3] deals with T1, Flavin-containing monooxygenase 3 (Homo sapiens, UniProt P31513).
T1 sequence (P31513 whole entry): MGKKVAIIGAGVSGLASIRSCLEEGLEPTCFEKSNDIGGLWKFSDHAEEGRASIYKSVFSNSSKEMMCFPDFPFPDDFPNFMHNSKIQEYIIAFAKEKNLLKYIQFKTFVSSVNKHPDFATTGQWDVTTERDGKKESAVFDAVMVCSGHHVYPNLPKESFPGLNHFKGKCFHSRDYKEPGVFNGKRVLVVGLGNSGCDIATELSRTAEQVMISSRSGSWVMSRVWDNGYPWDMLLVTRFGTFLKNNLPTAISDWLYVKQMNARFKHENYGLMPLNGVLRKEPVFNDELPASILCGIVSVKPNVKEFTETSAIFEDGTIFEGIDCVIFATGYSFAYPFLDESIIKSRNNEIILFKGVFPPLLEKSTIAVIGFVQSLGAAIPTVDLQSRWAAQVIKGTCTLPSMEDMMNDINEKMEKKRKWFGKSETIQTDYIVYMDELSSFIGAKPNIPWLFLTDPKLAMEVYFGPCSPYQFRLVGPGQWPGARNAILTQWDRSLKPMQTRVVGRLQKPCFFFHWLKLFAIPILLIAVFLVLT
Put plainly: Activity of human recombinant FMO3 expressed in microsomes isolated from baculovirus infected insect BTI-TN-5B1-4 cells assessed as enzyme-mediated 3-methyl-4-(2-(piperazin-1-yl)phenylthio)phenyl)methanol formation at 8 to 50 uM after 120 mins by HPLC/MS-MS analysis in presence of NADPH regenerating system with NADP+. The data set is classed as ADME. The following applies: 2 h.

The subject of data set [4] is Liver microsome. Briefly: Drug metabolism in pooled human liver microsomes assessed as formation of 3-(2,4-dimethylphenylthio)-4-(piperazin-1-yl)phenol after 30 mins by Michaelis-Menten plot analysis in presence of NADPH regenerating system with NADP+. The data set is classed as ADME. The conditions noted are these: 0.5 h, read-out: Km(app).
The target of a further data set is Cytochrome P450 2C9 (Homo sapiens, UniProt P11712). Briefly: Activity of human recombinant CYP2C9 expressed in microsomes isolated from human AHH-1 cells assessed as enzyme-mediated 4-(2-(2,4-dimethylphenylthio)phenyl)piperazin-1-ol formation at 8 to 50 uM after 120 mins by HPLC/MS-MS analysis in presence of NADPH regenerating system with NADP+. The class given is ADME, cell-free. The conditions noted are these: 2 h.
Sequence of Cytochrome P450 2C9 (P11712 whole entry): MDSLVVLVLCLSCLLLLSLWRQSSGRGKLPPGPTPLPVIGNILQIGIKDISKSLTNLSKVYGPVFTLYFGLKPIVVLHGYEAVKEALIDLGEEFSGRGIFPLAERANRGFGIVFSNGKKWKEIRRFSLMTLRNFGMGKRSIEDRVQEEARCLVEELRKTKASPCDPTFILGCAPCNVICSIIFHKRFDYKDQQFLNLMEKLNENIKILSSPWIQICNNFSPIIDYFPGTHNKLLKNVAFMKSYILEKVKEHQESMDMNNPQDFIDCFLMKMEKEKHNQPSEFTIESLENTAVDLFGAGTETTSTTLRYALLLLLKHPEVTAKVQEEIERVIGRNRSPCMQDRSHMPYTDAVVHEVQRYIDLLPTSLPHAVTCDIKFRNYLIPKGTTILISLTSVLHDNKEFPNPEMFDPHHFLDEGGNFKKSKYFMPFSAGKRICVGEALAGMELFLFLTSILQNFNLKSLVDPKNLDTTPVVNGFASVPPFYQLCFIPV

Data set [5] deals with T2, Cytochrome P450 2D6 (Homo sapiens, UniProt P10635). Briefly: Activity of human recombinant CYP2D6 expressed in microsomes isolated from human AHH-1 cells assessed as enzyme-mediated 3-(2,4-dimethylphenylthio)-4-(piperazin-1-yl)phenol formation at 8 to 50 uM after 120 mins by HPLC/MS-MS analysis in presence of NADPH regenerating system with NADP+. The class given is ADME, cell-free. The following applies: 2 h.
T2 sequence (P10635 whole entry): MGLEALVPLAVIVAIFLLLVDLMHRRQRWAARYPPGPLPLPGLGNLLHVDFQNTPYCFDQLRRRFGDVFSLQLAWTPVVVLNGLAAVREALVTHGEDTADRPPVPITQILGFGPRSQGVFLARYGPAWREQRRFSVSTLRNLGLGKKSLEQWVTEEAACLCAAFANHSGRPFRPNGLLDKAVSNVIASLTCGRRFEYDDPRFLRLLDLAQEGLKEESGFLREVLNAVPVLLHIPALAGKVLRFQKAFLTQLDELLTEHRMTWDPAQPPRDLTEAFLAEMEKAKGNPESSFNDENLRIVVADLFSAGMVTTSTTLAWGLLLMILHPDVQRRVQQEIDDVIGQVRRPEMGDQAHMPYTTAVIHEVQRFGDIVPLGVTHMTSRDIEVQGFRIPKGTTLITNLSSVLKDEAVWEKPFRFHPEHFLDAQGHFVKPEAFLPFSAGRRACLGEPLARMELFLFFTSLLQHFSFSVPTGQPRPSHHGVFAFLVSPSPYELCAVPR

Data set [6] addresses T2, Cytochrome P450 2D6. Put plainly: Activity of human recombinant CYP2D6 expressed in microsomes isolated from human AHH-1 cells assessed as enzyme-mediated 3-methyl-4-(2-(piperazin-1-yl)phenylthio)benzoic acid formation at 8 to 50 uM after 120 mins by HPLC/MS-MS analysis in presence of NADPH regenerating system with NADP+. The class given is ADME, cell-free. The conditions noted are these: 2 h.

Another data set has as its target Cytochrome P450 2E1 (Homo sapiens, UniProt P05181). Put plainly: Activity of human recombinant CYP2E1 expressed in microsomes isolated from human AHH-1 cells assessed as enzyme-mediated 1-(2-(2,4-dimethylphenylsulfinyl)phenyl)piperazine formation at 8 to 50 uM after 120 mins by HPLC/MS-MS analysis in presence of NADPH regenerating system with NADP+. The data set is classed as ADME, cell-free. The following applies: 2 h.

For data set [7], the target named is T2, Cytochrome P450 2D6. Briefly: Activity of human recombinant CYP2D6 expressed in microsomes isolated from human AHH-1 cells assessed as enzyme-mediated (3-methyl-4-(2-(piperazin-1-yl)phenylthio)phenyl)methanol formation at 8 to 50 uM after 120 mins by HPLC/MS-MS analysis in presence of NADPH regenerating system with NADP+. The following applies: 2 h. The class given is ADME, cell-free.

The structures appear in SMILES notation.

Sequence of Cytochrome P450 2E1 (P05181 whole entry): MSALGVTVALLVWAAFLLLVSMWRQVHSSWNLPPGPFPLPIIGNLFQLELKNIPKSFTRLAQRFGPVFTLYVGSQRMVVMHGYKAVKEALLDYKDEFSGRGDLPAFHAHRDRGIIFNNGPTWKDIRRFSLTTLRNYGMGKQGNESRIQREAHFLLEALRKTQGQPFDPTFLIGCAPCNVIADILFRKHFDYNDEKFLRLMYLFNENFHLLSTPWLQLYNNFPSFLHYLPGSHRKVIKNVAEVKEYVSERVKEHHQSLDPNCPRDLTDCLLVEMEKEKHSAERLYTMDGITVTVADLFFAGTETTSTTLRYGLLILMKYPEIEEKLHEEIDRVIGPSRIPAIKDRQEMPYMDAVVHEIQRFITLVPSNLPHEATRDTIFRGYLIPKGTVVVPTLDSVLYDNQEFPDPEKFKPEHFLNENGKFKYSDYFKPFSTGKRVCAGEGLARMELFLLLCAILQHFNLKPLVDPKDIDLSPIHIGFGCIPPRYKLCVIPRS

What is called Km is the substrate concentration at which the rate is half of its maximum. In the case of `Br.Cc1ccc(Sc2ccccc2N2CCNCC2)c(C)c1` [VORTIOXETINE HYDROBROMIDE], the Drug metabolism entry in the data set on Liver microsome [1] was “metabolite_detected”; with Liver microsome [2], “metabolite_detected”; in data set [3], “metabolite_not_detected”; on Cytochrome P450 2C9, “metabolite_detected”; at Cytochrome P450 2D6 [5] it was “metabolite_detected”; at Cytochrome P450 2D6 [6], “metabolite_detected”. The results for the Drug metabolism result at Cytochrome P450 2E1 and at Cytochrome P450 2D6 [7] were “metabolite_not_detected” and “metabolite_detected”, respectively. Moreover, the Km in the data set with Liver microsome [4] was 323 µM.
